Reference: the supplement of paper PMC11208160

Assay: recombinant UMI read abundance after kanamycin selection (control-corrected) (log10(CPM+1)); higher = more efficient recombination; extreme values may be limits of the assay; sequences stand for … in AGTGCAGAGAAAATCGGCCAGTTTTCTCTGCCTGCAGTCCGCATGCCGTGGGACCCCTTGGGTTCTAACCTGTTGCCTAGATTTATGCAGCGGACTGCCTTTCTCCCAAAGTGATAAACCGG…AGGTTGGTTTCACT; site = the 11-nt donor
Method: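 Pooled E. coli donor-specificity screen for the IS621 bridge recombinase. Each library member carries a reprogrammed 11-nt donor and a full-length LE bridge RNA expressed in cis from the natural promoter, with a paired donor-binding loop (8-nt LDG + 4-nt RDG) and a target-binding loop fixed to T5. It is co-electroporated with a T5 target plasmid; recombinase is induced with 0.07 mM IPTG and recombinants are selected on kanamycin. UMIs are counted as CPM, averaged over two biological replicates and corrected by the unselected control. Molecule = full bridge RNA written as DNA, built from the T5 scaffold: LDG = donor specificity nt 1-8, RDG = reverse complement of nt 8-11.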
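Note: IS621 bridge recombinase in Escherichia coli cells against a fixed T5 target plasmid.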

First: ACACGGACATGGACCGGTTTTCCCGGTAATCCGTATTTGTC (site ACACGGACTGA)
Second: ACACGGACATGGACCGGTTTTCCCGGTAATCCGTATTTGTC (site ACACGTACTGA)
The “recombinant UMI read abundance (log10)” value of the first is higher: 0.491 for the first, 0 for the second.

“ACACGTCCATGGACCGGTTTTCCCGGTAATCCGTATTTGAT (site ACACGTCCTAT)” and “ACACTAGCATGGACCGGTTTTCCCGGTAATCCGTATTTGTG (site ACACTAGCTCA)” are within 0.2 log units of each other in “recombinant UMI read abundance (log10)” value: 1.56 for the first, 1.62 for the second.

Compared with “ACACTATCATGGACCGGTTTTCCCGGTAATCCGTATTTGCA (site ACAATATCTTG)”, “ACACTATCATGGACCGGTTTTCCCGGTAATCCGTATTTGCA (site ACACTATCTTG)” is higher in “recombinant UMI read abundance (log10)” value: 2.11 for the first, 2.85 for the second.

First: ACACTATCATGGACCGGTTTTCCCGGTAATCCGTATTTGCA (site ACAGTATCTTG)
Second: ACACTATCATGGACCGGTTTTCCCGGTAATCCGTATTTGCA (site ACATTATCTTG)
The “recombinant UMI read abundance (log10)” value of the first is lower: 1.89 for the first, 2.21 for the second.

First: ACAGAAACATGGACCGGTTTTCCCGGTAATCCGTATTTGCA (site ACAGAAACTTG)
Second: ACAGAAACATGGACCGGTTTTCCCGGTAATCCGTATTTGCA (site ACAGTATCTTG)
The “recombinant UMI read abundance (log10)” value of the first is higher: 2.78 for the first, 0 for the second.

Going from “ACAGCAGCATGGACCGGTTTTCCCGGTAATCCGTATTTGCA (site ACAGCAGCTTG)” to “ACAGCAGCATGGACCGGTTTTCCCGGTAATCCGTATTTGCA (site ACAGTATCTTG)”, the “recombinant UMI read abundance (log10)” value falls from 2.49 to 0.

Going from “ACAGCGTCATGGACCGGTTTTCCCGGTAATCCGTATTTGAC (site ACAGCGTCTGT)” to “ACAGCTACATGGACCGGTTTTCCCGGTAATCCGTATTTGTG (site ACAACTACTCA)”, the “recombinant UMI read abundance (log10)” value falls from 3.29 to 0.815.

Compared with “ACAGCTACATGGACCGGTTTTCCCGGTAATCCGTATTTGTG (site ACACCTACTCA)”, “ACAGCTACATGGACCGGTTTTCCCGGTAATCCGTATTTGTG (site ACAGCTACTCA)” is higher in “recombinant UMI read abundance (log10)” value: 0.156 for the first, 1.44 for the second.

Going from “ACAGCTACATGGACCGGTTTTCCCGGTAATCCGTATTTGTG (site ACATCTACTCA)” to “ACAGGAACATGGACCGGTTTTCCCGGTAATCCGTATTTGTC (site ACAAGAACTGA)”, the “recombinant UMI read abundance (log10)” value rises from 0.0498 to 1.18.

Going from “ACAGGAACATGGACCGGTTTTCCCGGTAATCCGTATTTGTC (site ACACGAACTGA)” to “ACAGGAACATGGACCGGTTTTCCCGGTAATCCGTATTTGTC (site ACAGGAACTGA)”, the “recombinant UMI read abundance (log10)” value rises from 0.428 to 2.43.

Going from “ACAGGAACATGGACCGGTTTTCCCGGTAATCCGTATTTGTC (site ACATGAACTGA)” to “ACAGGACCATGGACCGGTTTTCCCGGTAATCCGTATTTGGA (site ACAGGACCTTC)”, the “recombinant UMI read abundance (log10)” value falls from 0.289 to 0.00625.

Going from “ACAGGATCATGGACCGGTTTTCCCGGTAATCCGTATTTGCC (site ACAGGATCTGG)” to “ACAGGATCATGGACCGGTTTTCCCGGTAATCCGTATTTGCC (site ACAGTATCTTG)”, the “recombinant UMI read abundance (log10)” value falls from 2.27 to 0.

Going from “ACAGGGTCATGGACCGGTTTTCCCGGTAATCCGTATTTGCA (site ACAGGGTCTTG)” to “ACAGGGTCATGGACCGGTTTTCCCGGTAATCCGTATTTGCA (site ACAGTATCTTG)”, the “recombinant UMI read abundance (log10)” value falls from 3.2 to 1.89.

Compared with “ACAGTACCATGGACCGGTTTTCCCGGTAATCCGTATTTGCC (site ACAGTACCTGG)”, “ACAGTACCATGGACCGGTTTTCCCGGTAATCCGTATTTGCC (site ACAGTATCTTG)” is higher in “recombinant UMI read abundance (log10)” value: 0 for the first, 0.966 for the second.

Compared with “ACAGTAGCATGGACCGGTTTTCCCGGTAATCCGTATTTGTA (site ACAGTAGCTTA)”, “ACAGTAGCATGGACCGGTTTTCCCGGTAATCCGTATTTGTA (site ACAGTATCTTG)” is lower in “recombinant UMI read abundance (log10)” value: 2.87 for the first, 1.49 for the second.

First: ACAGTATCATGGACCGGTTTTCCCGGTAATCCGTATTTGCG (site ACAGTATCTAG)
Second: ACAGTATCATGGACCGGTTTTCCCGGTAATCCGTATTTGCG (site ACAGTATCTCG)
The “recombinant UMI read abundance (log10)” value of the first is lower: 2.18 for the first, 3.51 for the second.
